The values below come from US4711898A, “4-quinolone derivatives having anti-inflammatory, anti-allergic, antitussive, expectorant and antithrombotic activity” (Nippon Shinyaku Co., Ltd., priority 1982, dated 1987).

Where a name gives a salt, the structure may show the parent alone. Read-outs that look alike come from different tables or passages of the source.

Data set [1] deals with carrageenin edema. The data set is described as follows: Carrageenin edema at the hind foot of rats. In kind it is in vivo, SD-strain rats. The settings on record: 200 mg/kg per os, one hour before carrageenin, foot volume three hours after; for inhibition in vivo at 200 mg/kg: Rattus norvegicus, po, 3 h, read-out: % Inhibition (carrageenin edema). As for the experimental part:
The anti-inflammatory action of the compounds of the present invention were evaluated by measuring the inhibition against carrageenin edema as set forth below. Carrageenin edema at the hind foot of rats: Experimental method. SD-strain rats of body weights of around 150 grams were used, each group consisting of five rats. A solution (0.1 ml) of 0.5% carrageenin dissolved in physiological saline water was subcutaneously injected into the right hind foot pat of the rats and, one hour prior to the injection of carrageenin, 200 mg/kg of test compound was given per os. Foot volumes of the rats before the carrageenin treatment and those of three hours after the treatment were measured and the differences were compared with those of the control group to adopt as a target of the effect of the compounds.
A general note: Carrageenan injected into the paw causes an acute inflammation.

In data set [2] the test system is male mice. The data set is described as follows: Acute toxicity after oral administration. The data set is classed as in vivo. As for the experimental part: Acute toxicity was determined two weeks after oral administration of 4000 mg/kg to male mice. Four mice (denominator) are used in each group and the dead numbers are given as the numerator. The compounds of the present invention show little, if any, toxicity.

For data set [3], the system named is SRS-A (slow reacting substance of anaphylaxis) contraction of ileum. The data set can be described thus: Anti-SRS-A action using ileus of guinea pigs. The data set is classed as cell-based, Hartley strain male guinea pigs. The conditions noted are these: 5 min, guinea pig ileum, SRS-A 20 units, compound five minutes before; for inhibition at 1 µM: Cavia porcellus, 1/1000 mM, read-out: 1/1000 mM SRS-A Inhibition Ratio %. In outline:
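Ileum from male Hartley guinea pigs (300 to 350 g) in oxygenated Tyrode with 10^-7 g/ml atropine and 10^-6 g/ml pyrilamine, contracted by 20 units SRS-A. Compound added five minutes before; isotonic contraction height compared with SRS-A alone.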

Data set [4] deals with passive cutaneous anaphylaxis (DNP-As homocytotropic antiserum). The data set is described as follows: passive cutaneous anaphylatic assay (PCA) in rats. In kind it is in vivo, Wistar strain rats. The conditions noted are these: 10 mg/kg orally, one hour before antigen; for inhibition in vivo at 10 mg/kg: Rattus norvegicus, po, 1 h, read-out: PCA Inhibition Ratio %. In a few lines:
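Wistar rats were sensitised intradermally with diluted DNP-As homocytotropic antiserum and challenged 72 h later with i.v. DNP-As plus Evans Blue. Compounds were given orally at 10 mg/kg 1 h before antigen. Dye extracted from skin sites 30 min post-challenge gave inhibition relative to controls.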

Data set [5] has as its system platelet aggregation induced by ADP, collagen and AA. The data set can be described thus: Action against Platelet Coagulation (aggregation in platelet rich plasma of rabbits). In kind it is cell-based, Male rabbits. The settings on record: Oryctolagus cuniculus; for inhibition at 100 µM: final concentration 10^-4 M; for inhibition at 10 µM: final concentration 10^-5 M; for inhibition at 1 µM: final concentration 10^-6 M. As for the experimental part: Action against Platelet Coagulation was determined as follows: Male rabbits with body weights of 3 kg or around were used. Blood was taken from their carotid artery and, immediately thereafter, 1/10 volume (to the blood) of 3.8% aqueous solution of sodium citrate was added thereto. The mixture was centrifuged at room temperature (400 g; 10 minutes) to give platelet rich plasma (abbreviated as PRP: containing 5×10^5 platelets per mm^3). The PRP was then placed into a cell for platelet coagulation meter (Niko Bioscience), stirred, 5 microliters of test compound solution in dimethyl sulfoxide was added and, one minute thereafter, 5 micromolar of ADP, 10 micrograms/ml of collagen or 25 microliters of arachidoic acid (AA) was added thereto to observe changes of extinctions. From the maximum coagulation value at the time of administration the of test compound against that at the time of the solvent addition, inhibition was calculated and the effect of the compounds against the platelet coagulation was determined.

The conditions of data set [6]: cited from earlier work.
Where [7] appears, read: AA 150 μM, read-out: Inhibition (%) of platelet aggregation, AA (150 μM).
[8] abbreviates: ADP 5 μM, read-out: Inhibition (%) of platelet aggregation, ADP (5 μM).
The mark [9] stands for this setting: collagen 10 μg/ml, read-out: Inhibition (%) of platelet aggregation, Collagen (10 μg/ml).
Where [10] appears, read: 4000 mg/kg oral, male mice, two weeks, dead/group of four.

`CCCCCCn1c(-c2ccccc2)cc(=O)c2cc(C(=O)O)ccc21` [Example 20]: in data set [1], the inhibition in vivo at 200 mg/kg amounted to 10.6%. Moreover, the “Lethal Ratio” value in data set [2] (mouse, in vivo) was 1/4. Further, the inhibition at 1 µM in data set [3] was found to be 83.9%. Besides, the inhibition in vivo at 10 mg/kg in data set [4] was found to be 26.4%.

Turning to `COC(=O)c1ccc2[nH]c(-c3ccccc3I)cc(=O)c2c1` [Example 28], the inhibition in vivo at 200 mg/kg in data set [1] stood at 15.9%. In addition, the “Lethal Ratio” value in data set [2] (mouse, in vivo) is recorded as 0/4. For the same molecule, the inhibition at 1 µM in data set [3] was 55.6%. The inhibition in vivo at 10 mg/kg in data set [4] is 19.6%.

Consider `Cc1ccccc1-c1cc(=O)c2cc(C(=O)O)ccc2[nH]1` [Example 42], for which the inhibition in vivo at 200 mg/kg in data set [1] is 11.8%. Moreover, the “Lethal Ratio” value in data set [2] (mouse, in vivo) was 0/4. Moreover, in data set [3], the inhibition at 1 µM is 17.4%. The inhibition in vivo at 10 mg/kg in data set [4] amounted to 43.2%.

Consider `COC(=O)c1ccc2[nH]c(-c3ccccc3OC)cc(=O)c2c1` [Example 56], for which, in data set [2] (mouse, in vivo), the “Lethal Ratio” value was 1/4. Also, the inhibition at 1 µM in data set [3] was 25.2%. In data set [4], the inhibition in vivo at 10 mg/kg stood at 22.3%.

Take `CCOC(=O)c1cccc2c1N=C(c1ccccc1Cl)CC2=O` [Example 83, ethyl 2-(2-chlorophenyl)-4-quinolone-8-carboxylate]: in data set [1], the inhibition in vivo at 200 mg/kg worked out at 22.5%. Moreover, the figures for the inhibition at 100 µM in data set [5] (setting [7]), in data set [5] (setting [8]) and in data set [5] (setting [9]) were 100%, 18.5% and 100%, respectively. Also, the values for the inhibition at 10 µM in data set [5] (setting [7]) and in data set [5] (setting [9]) were 3.3% and 14%, respectively. Also, the “Lethal Ratio” value in data set [2] (setting [10]) is 0/4. Also, in data set [3], the inhibition at 1 µM was determined as 75.9%. Also, the inhibition in vivo at 10 mg/kg in data set [4] amounted to 28.5%.

As to `O=C(O)c1cccc2c(=O)cc(-c3ccccc3Cl)[nH]c12` [Example 84], the “Lethal Ratio” value in data set [2] (setting [10]) was 0/4.

As to `O=C(O)c1cccc2c(=O)cc(-c3ccccc3Cl)[nH]c12` [Example 85], in data set [2] (mouse, in vivo), the “Lethal Ratio” value was 0/4. Also, the inhibition at 1 µM in data set [3] is 27.9%. Also, the inhibition in vivo at 10 mg/kg in data set [4] came to 17%.

Take `CCOC(=O)c1cccc2c(=O)cc(-c3ccc(Cl)cc3Cl)[nH]c12` [Example 89]: in data set [2] (mouse, in vivo), the “Lethal Ratio” value was 0/4. Moreover, the inhibition at 1 µM in data set [3] amounted to 55.6%. In data set [4], the inhibition in vivo at 10 mg/kg was 26.2%.

Turning to `CCOC(=O)c1cccc2c(=O)cc(-c3ccc(C)cc3C)[nH]c12` [Example 94], in data set [2] (mouse, in vivo), the “Lethal Ratio” value was 1/4. The inhibition at 1 µM in data set [3] stood at 78.6%. In addition, the inhibition in vivo at 10 mg/kg in data set [4] amounted to 25.7%.

As to `CCOC(=O)c1cccc2c(O)cc(-c3ccccc3Cl)nc12` [Example 100, Ethyl 2-(2-chlorophenyl)-4-hydroxyquinoline-8-carboxylate hydrochloride], the “Lethal Ratio” value in data set [2] (setting [10]) was 0/4. In addition, in data set [3], the inhibition at 1 µM was 70.5%. Moreover, the inhibition in vivo at 10 mg/kg in data set [4] stood at 29.7%.

`C=CCOC(=O)c1cccc2c1N=C(c1ccccc1Cl)CC2=O` [Example 110, Allyl 2-(2-chlorophenyl)-4-quinolone-8-carboxylate]: the inhibition in vivo at 200 mg/kg in data set [1] was found to be 19.2%. Moreover, in data set [3], the inhibition at 1 µM is 18.9%. For the same molecule, the inhibition in vivo at 10 mg/kg in data set [4] is 17.7%.

Turning to `CC(C)COC(=O)c1cccc2c(=O)cc(-c3ccccc3Cl)[nH]c12` [Example 112], the inhibition in vivo at 200 mg/kg in data set [1] was found to be 10%. Also, the inhibition at 1 µM in data set [3] is 25%. For the same molecule, the inhibition in vivo at 10 mg/kg in data set [4] is 24.3%.

For the molecule `CC(=O)OCCOC(=O)c1cccc2c(=O)cc(-c3ccccc3Cl)[nH]c12` [Example 118], the inhibition in vivo at 200 mg/kg in data set [1] is 27.9%. Besides, the inhibition at 1 µM in data set [3] is 64.2%. Moreover, the inhibition in vivo at 10 mg/kg in data set [4] was found to be 41.5%.

As to `CCOCCOC(=O)c1cccc2c(=O)cc(-c3ccccc3Cl)[nH]c12` [Example 120], in data set [1], the inhibition in vivo at 200 mg/kg worked out at 29.4%. Moreover, the inhibition at 1 µM in data set [3] was 20.3%. Besides, in data set [4], the inhibition in vivo at 10 mg/kg came out at 10.7%.

Turning to `CC(O)COC(=O)c1cccc2c(=O)cc(-c3ccccc3Cl)[nH]c12` (stereo not drawn) [Example 125], the inhibition in vivo at 200 mg/kg in data set [1] is 17.2%. Further, the inhibition at 1 µM in data set [3] is 15.6%. The inhibition in vivo at 10 mg/kg in data set [4] is 10.4%.

For `CCOC(=O)CC(=O)COC(=O)c1cccc2c(=O)cc(-c3ccccc3Cl)[nH]c12` [Example 130], the inhibition in vivo at 200 mg/kg in data set [1] came out at 18.3%. The inhibition at 1 µM in data set [3] was 12.7%. Further, in data set [4], the inhibition in vivo at 10 mg/kg amounted to 20.3%.

Regarding `O=C(OCCO)c1cccc2c(=O)cc(-c3ccccc3F)[nH]c12` [Example 131], in data set [1], the inhibition in vivo at 200 mg/kg was found to be 29.9%. Also, the inhibition at 1 µM in data set [3] was found to be 14%. The inhibition in vivo at 10 mg/kg in data set [4] is 28.5%.

Turning to `O=C(OCCO)c1cccc2c(=O)cc(-c3ccc(Cl)cc3)[nH]c12` [Example 133], the inhibition in vivo at 200 mg/kg in data set [1] worked out at 10%. Besides, the inhibition at 1 µM in data set [3] worked out at 21.3%. Further, in data set [4], the inhibition in vivo at 10 mg/kg is 17%.

In the case of `Cc1ccc(-c2cc(=O)c3cccc(C(=O)OCCO)c3[nH]2)c(C)c1` [Example 136], the inhibition in vivo at 200 mg/kg in data set [1] was 26.9%. In addition, the inhibition at 1 µM in data set [3] amounted to 15.4%. In data set [4], the inhibition in vivo at 10 mg/kg stood at 19.4%.

`COc1ccc2c(c1)c(CC(=O)O)c(C)n2C(=O)c1ccc(Cl)cc1` [Indomethacin]: in data set [5] (setting [7]), the inhibition at 100 µM worked out at 100%, the inhibition at 10 µM was 100% and the inhibition at 1 µM was determined as 1.6%. For the same molecule, the inhibition at 100 µM in data set [5] (setting [8]) came to 2.6%. Also, in data set [5] (setting [9]), the inhibition at 100 µM was 100%, the inhibition at 10 µM worked out at 100% and the inhibition at 1 µM turned out to be 19.6%.

As to `O=C(O)c1cc(=O)c2c(OCC(O)COc3cccc4oc(C(=O)O)cc(=O)c34)cccc2o1` [Sodium chromoglicate], the “effect on oral administration” value in data set [6] is on record as “does not show any effect on oral administration”.

For the molecule “Ethyl 2-phenyl-4-quinolone-8-carboxylate [Example 80]”, the “% Inhibition (carrageenin edema)” value in data set [1] is reported as 14.7%. For the same molecule, the “1/1000 mM SRS-A Inhibition Ratio %” value in data set [3] is 52.4%. For the same molecule, the “PCA Inhibition Ratio %” value in data set [4] amounted to 20.9%.
